# Like-named read-outs stand apart in the source and are kept apart here.
# Legend:
# Format in all cases: cell-based
# Hs294T (human melanoma) = assay: cells; details: for IC50: Hs 294T, read-out: IC50 (nM) Hs294T; for SI Hs294T: selectivity coefficient vs normal BALB/3T3 fibroblasts
# [1] = test system: MIA PaCa-2 (human pancreatic cancer); assay: cells; details: for SI MIA PaCa-2: selectivity coefficient vs normal BALB/3T3 fibroblasts
# [2] = test system: PLC/PRF/5 (human liver cancer); assay: cells; details: for SI PLC/PRF/5: selectivity coefficient vs normal BALB/3T3 fibroblasts
# [3] = test system: MV-4-11 (human biphenotypic leukaemia); assay: In vitro cytotoxicity, MTT assay, MV-4-11; details: for IC50: Homo sapiens, MV4-11, read-out: IC50 (nM) MV4-11
# [4] = test system: BALB/3T3 (normal mouse fibroblasts); assay: In vitro cytotoxicity, SRB assay, normal BALB/3T3 fibroblasts
# [5] = test system: NCI-H358 (human lung cancer); assay: cells; details: for SI NCI-H358: selectivity coefficient vs normal BALB/3T3 fibroblasts
# [6] = test system: A2780Cis (cisplatin-resistant human ovarian cancer); assay: In vitro cytotoxicity, SRB assay, A2780Cis; details: for IC50: Homo sapiens, A2780cis, read-out: IC50 (nM) A2780Cis
# [7] = test system: SNU-16 (human gastric cancer); assay: cells; details: for SI SNU-16: selectivity coefficient vs normal BALB/3T3 fibroblasts
# [8] = Table 4, Hs294T human melanoma cells
# [9] = Table 4, MIA PaCa-2 human pancreatic cancer cells, read-out: IC50 (nM) MIA PaCa-2
# [10] = Table 4, PLC/PRF/5 human liver cancer cells, read-out: IC50 (nM) PLC/PRF/5
# [11] = Table 4, BALB/3T3 normal mouse fibroblasts, read-out: IC50 (nM) BALB3T3 normal cells
# [12] = Table 4, NCI-H358 human lung cancer cells, read-out: IC50 (nM) NCI-H358
# [13] = Table 4, SNU-16 human gastric cancer cells, read-out: IC50 (nM) SNU-16
Structure (SMILES),IC50 (Hs294T (human melanoma); [8]) [nM],SI Hs294T (Hs294T (human melanoma); Table 4),"IC50 [1, 9] [nM]",SI MIA PaCa-2 ([1]; Table 4),"IC50 [2, 10] [nM]",SI PLC/PRF/5 ([2]; Table 4),SI MV4-11 [3],IC50 [3] [nM],"IC50 [4, 11] [nM]","IC50 [5, 12] [nM]",SI NCI-H358 ([5]; Table 4),SI A2780Cis [6],IC50 [6] [nM],"IC50 [7, 13] [nM]",SI SNU-16 ([7]; Table 4),other results
CC[C@@H](C(=O)[C@@H](C)[C@@H](O)[C@H](C)[C@@H]1O[C@@H]([C@@H](CC)C(=O)O)CC[C@@H]1C)[C@H]1O[C@]2(C=C[C@@H](NC(=O)Nc3ccc(Cl)c(Cl)c3)[C@]3(CC[C@@](C)([C@H]4CC[C@](O)(CC)[C@H](C)O4)O3)O2)[C@H](C)C[C@@H]1C [FLC-00370-1•Na],1860,2.4,489,9.0,144,30.5,106.9,41.2,4400,826,5.33,134.5,32.7,1520,2.9,–
CC[C@@H](C(=O)[C@@H](C)[C@@H](O)[C@H](C)[C@@H]1O[C@@H]([C@@H](CC)C(=O)O)CC[C@@H]1C)[C@H]1O[C@]2(C=C[C@@H](NC(=O)C(N)=O)[C@]3(CC[C@@](C)([C@H]4CC[C@](O)(CC)[C@H](C)O4)O3)O2)[C@H](C)C[C@@H]1C [FLC-00376-1•Na],–,–,1850,2.5,1360,3.4,7.0,663,4640,5310,0.87,10.6,436,–,–,–
CC[C@@H](C(=O)[C@@H](C)[C@@H](O)[C@H](C)[C@@H]1O[C@@H]([C@@H](CC)C(=O)O)CC[C@@H]1C)[C@H]1O[C@]2(C=C[C@@H](NC(=O)Nc3cccc(C(F)(F)F)c3)[C@]3(CC[C@@](C)([C@H]4CC[C@](O)(CC)[C@H](C)O4)O3)O2)[C@H](C)C[C@@H]1C [FLC-00385-1],162,0.1,5.93,3.7,0.55,39.7,125.5,0.17,21.9,36.2,0.60,≈219.0,< 0.1,20.9,1.0,–
CC[C@@H](C(=O)[C@@H](C)[C@@H](O)[C@H](C)[C@@H]1O[C@@H]([C@@H](CC)C(=O)O)CC[C@@H]1C)[C@H]1O[C@]2(C=C[C@@H](NC(N)=O)[C@]3(CC[C@@](C)([C@H]4CC[C@](O)(CC)[C@H](C)O4)O3)O2)[C@H](C)C[C@@H]1C [FLC-00391-1],5870,0.6,3090,1.2,584,6.1,10.2,349,3570,5150,0.69,33.0,108,1330,2.7,–
CC[C@@H](C(=O)[C@@H](C)[C@@H](O)[C@H](C)[C@@H]1O[C@@H]([C@@H](CC)C(=O)O)CC[C@@H]1C)[C@H]1O[C@]2(C=C[C@@H](NC(=O)OCC(F)(F)F)[C@]3(CC[C@@](C)([C@H]4CC[C@](O)(CC)[C@H](C)O4)O3)O2)[C@H](C)C[C@@H]1C [FLC-00395-1•Na],–,1.6,–,2.4,–,2.1,177.2,0.44,–,–,0.65,43.8,1.78,–,0.8,"IC50 (Hs294T (human melanoma); Homo sapiens): 47.3 nM; IC50 ([1]; Homo sapiens, MIA PaCa-2, read-out: IC50 (nM) MIA PaCa-2): 33.1 nM; IC50 ([2]; Homo sapiens, PLC-PRF-5, read-out: IC50 (nM) PLC/PRF/5): 37.5 nM; IC50 ([4]; Mus musculus, BALB/3T3, read-out: IC50 (nM) BALB3T3 normal cells): 78 nM; IC50 ([5]; Homo sapiens, NCI-H358, read-out: IC50 (nM) NCI-H358): 121 nM; IC50 ([7]; Homo sapiens, SNU-16, read-out: IC50 (nM) SNU-16): 104 nM"
CC[C@@H](C(=O)[C@@H](C)[C@@H](O)[C@H](C)[C@@H]1O[C@@H]([C@@H](CC)C(=O)O)CC[C@@H]1C)[C@H]1O[C@]2(C=C[C@@H](NC(=O)Nc3c(F)c(F)c(F)c(F)c3F)[C@]3(CC[C@@](C)([C@H]4CC[C@](O)(CC)[C@H](C)O4)O3)O2)[C@H](C)C[C@@H]1C [FLC-00428-1•Na],173,1.4,36.9,6.6,7.85,31.1,182.9,1.34,244,57.3,4.27,56.0,4.36,114,2.1,–
CC[C@@H](C(=O)[C@@H](C)[C@@H](O)[C@H](C)[C@@H]1O[C@@H]([C@@H](CC)C(=O)O)CC[C@@H]1C)[C@H]1O[C@]2(C=C[C@@H](NC(=O)OCCF)[C@]3(CC[C@@](C)([C@H]4CC[C@](O)(CC)[C@H](C)O4)O3)O2)[C@H](C)C[C@@H]1C [FLC-00437-1•Na],264,0.7,45.7,4.2,42.3,4.5,37.5,5.11,192,184,1.04,40.8,4.7,342,0.6,–
CC[C@@H](C(=O)[C@@H](C)[C@@H](O)[C@H](C)[C@@H]1O[C@@H]([C@@H](CC)C(=O)O)CC[C@@H]1C)[C@H]1O[C@]2(C=C[C@@H](NC(=O)OC(CCl)CCl)[C@]3(CC[C@@](C)([C@H]4CC[C@](O)(CC)[C@H](C)O4)O3)O2)[C@H](C)C[C@@H]1C [FLC-00440-1•Na],130,0.9,43.6,2.6,9.5,12.1,32.6,3.52,115,60.2,1.91,26.1,4.41,400,0.3,–
CC[C@@H](C(=O)[C@@H](C)[C@@H](O)[C@H](C)[C@@H]1O[C@@H]([C@@H](CC)C(=O)O)CC[C@@H]1C)[C@H]1O[C@]2(C=C[C@@H](NC(=O)C(=O)NC3CC3)[C@]3(CC[C@@](C)([C@H]4CC[C@](O)(CC)[C@H](C)O4)O3)O2)[C@H](C)C[C@@H]1C [FLC-00441-1•Na],969,1.2,373,3.0,208,5.4,42.5,26.5,1120,930,1.21,25.7,43.8,2600,0.4,–

# Source: US20240294541A1, “COMPOUNDS CONSTITUTING C20-MODIFIED SALINOMYCIN DERIVATIVES, A METHOD FOR OBTAINING THE SAME, A COMPOSITION CONTAINING THE SAME AND A USE OF SAID COMPOUNDS” (FILECLO SPOLKA Z OGRANICZONA ODPOWIEDZIALNOSCIA, priority 2021, published 2024)
